Measured values taken from patent publication US12729211B2, “Gold(III) compounds and cancer cell-selective modulation of mitochondrial respiration and metabolism” (University of Kentucky Research Foundation, priority 2020, dated 2026).

Experiments:
[1] = test system: MDA-MB-468; experiment: MMP by JC-1 FACS, MDA-MB-468; format: cell-based
Excerpt: The MMP depolarizing effect on the panel of TBNCs and healthy models was examined with the use of flow assisted cell sorting (FACS) (FIG. 19A-C). JC-1 was used, a cationic, fluorometric dye that is dependent on the negative charge of the MMP. It is represented as J-aggregates (red fluorescence) when it accumulates into the mitochondria and J-monomers (green fluorescence) when it is located outside the mitochondrial membrane due to loss of the electrochemical gradient.
Next, the effect of MMP was examined when pretreated with MitoTEMPO (1 μM, 2 hours) (FIG. 34).

[2] = test system: MDA-MB-468; experiment: Mitochondrial ROS (mtROS) by MitoSOX FACS; format: cell-based; conditions: MitoTEMPO 1 μM 2 hours, then 2a 10 μM 2 hours
Excerpt: Second, to solidify the specificity of ROS, the use of MitoSOX was employed, which is a mitochondrial targeting dye that specifically reacts with superoxide.
First, the effect of pre-treatment on mtROS production was examined using flow cytometry. Since MitoTEMPO is a specific scavenger for superoxide, the potential to alleviate mitochondrial oxidative damage was investigated by scavenging mtROS once produced. […] In this experiment, Rotenone, a mitochondrial complex I inhibitor, was used as a positive control.

Compound	loss of MMP, MitoTEMPO pretreatment [1] [%]	loss of MMP, no pretreatment [1] [%]	decrease in mtROS versus the non-pretreated group [2] [fold]
Carbonyl cyanide m-chlorophenyl hydrazine [CCCP]	84	95	–
CC1(C)CC(NC(=O)C[P+](c2ccccc2)(c2ccccc2)c2ccccc2)CC(C)(C)N1[O] [MitoTEMPO]	–	–	1.8
